In patent US20020103082A1, “Adjuvant activity through modulation of animal and plant cell membrane transport” (Board of Regents, The University of Texas System, priority 2000, published 2002):
Read-outs that look alike come from different tables or passages of the source.

Key:
[1] = test system: wild-type yeast strain INVSC with plasmid pvt101-U; assay: Increasing yeast sensitivity to fungicide (filter disk zone of inhibition); type: cell-based, Saccharomyces cerevisiae; details: 48 hours
Protocol: Additional experiment were performed to test the ability of ecto-phosphatase inhibitors to increase the effectiveness of the commonly used fungicide chlorothalonil. Yeast was plated on media with or without an ecto-phosphatase inhibitor of Formula X where a paper filter disk soaked in the fungicide was added to the plate. After 48 hours, the zone of inhibition of yeast growth around the filter disk was calculated.
The wild-type yeast strain INVSC with plasmid pvt101-U (for selection on media lacking uracil) was used in all experiments and each experiment was performed in triplicate. Media used was made by combining YNB (Bio 101, Vista, Calif.), the drop out supplement CSM-URA (Bio 101, Vista, Calif.), and glucose in water. […]
Twenty μl of an overnight saturated culture of yeast was plated onto each plate, spread, and allowed to dry for 20 minutes. […] The zone of inhibition of yeast growth around the disk was assessed after 48 hours.
Plates with chlorothalonil disks indeed contained a zone of inhibition surrounding the disk. […] The zone of inhibition was calculated by measuring the radius from the center of the disk to the point of noticeable yeast growth (at least 10 measurements per plate), averaging the radii measurements, and using the average radius of the plates to calculate the circular area of the zone of inhibition.

[2] = test system: acid phosphatase yeast mutant YMR4; assay: Salvage pathway experiments in yeast (turbidity); type: cell-based, Saccharomyces cerevisiae; details: added to media with cycloheximide; 72 hours
Protocol: All cell lines were grown in liquid media either containing drug (for the drug selected lines) or not containing drug (for the non-drug selected lines). When the cultures reached a turbidity of 1.00 as measured at a wavelength of 600 in a spectrophotometer (OD600=1.00), 10 μl of each culture was then removed and placed in either media with nothing added, 3 mM potassium phosphate; 3 mM adenosine; 9 mM potassium phosphate and 3 mM adenosine (for controls); potassium phosphate and cycloheximide; adenosine and cycloheximide; adenosine, cycloheximide, and potassium phosphate. Cell cultures were further grown for 72 hours, and their turbidity was determined by OD600 readings on a spectrophotometer. Growth of cell lines for nigericin experiments: Drug selected lines were removed from cycloheximide containing plates and placed in 5 ml liquid media containing 5 ng/ml cycloheximide. Cell cultures were allowed to grow until they reached an OD600 reading of 1.00, and then 10 μl from each culture was removed and transferred to culture tubes containing 5 ml of liquid media and 25 μg/ml nigericin. OD600 readings were recorded daily for a period of up to 72 hours to determine growth.

[3] = test system: YMR4 yeast mutant deficient in two major extracellular phosphatases; assay: Yeast drug selection growth assay; type: cell-based, Saccharomyces cerevisiae
Protocol: (§1) Yeast were grown at 30 C under conditions of constant selection for uracil auxotrophy. YNB (BiolOl, Vista, Calif.) supplemented with CSM (uracil dropout) and 2% glucose was used to grow strains having pVT101 constructs. Cycloheximide (Sigma Chemical, St. Louis, Mo.) was added to liquid media or spread on solid media to achieve a final concentration of 500 ng/ml. Nigericin (Sigma Chemical, St. Louis, Mo.) was added to liquid media or spread on solid media to achieve a final concentration of 25 μg/ml. Yeast strains used in cycloheximide selection assays were always propagated in the presence of the cycloheximide on plates and then streaked onto new plates containing drug or no drug, such that induced resistance existed in each strain at the time of the start of the assay. For selection assays on plates, single colonies were streaked; for selection in liquid media 0.01 ml of saturated culture was added to fresh media containing the drug. The plates shown in figures were grown for 3-5 days before photographs were taken. Yeast selection assays in liquid media were quantitated by turbidity as measured by absorbance at OD600.

[4] = test system: wild-type Arabidopsis thaliana plants; assay: Arabidopsis germination selection assay; type: in vivo; details: cycloheximide 500 ng/ml alone or phosphatase inhibitor 1 mM alone, after 10-20 days
Protocol: (§2) Arabidopsis seeds were sown in a solid germination media containing MS salts (Sigma Chemical, St. Louis, Mo.), 2% sucrose, 0.8% agar, and vitamins (Valvekens, D. et al., […], Proc. Natl. Acad. Sci. USA 85:5536-5540). For selection assays, one of the following, or a combination of both, was added to media (cooled to less than 50° C. before adding) immediately prior to pouring into plates: cycloheximide at a final concentration of 500 ng/ml; α,β-methyleneadenosine 5′-diphosphate at a final concentration of 1 mM. Plant growth was measured by germination percentage after 10-20 days. All other materials and methods were iscussed above in Example 2.

[5] = test system: AtPGP-1 overexpressing (MDR OE) Arabidopsis thaliana plants; type: in vivo; details: AtPGP-1 overexpressing plants; cycloheximide 500 ng/ml alone or phosphatase inhibitor 1 mM alone; after 10-20 days
Protocol: as §2

[6] = test system: wild-type yeast strain INVSC1; assay: Yeast drug selection growth assay; type: cell-based, Saccharomyces cerevisiae; details: cycloheximide 500 ng/ml
Protocol: as §1

[7] = test system: yeast cells (YMR4 and INVSC, with or without AtPGP-1); type: cell-based, Saccharomyces cerevisiae; details: 100 mM ATP, 48 hours
Protocol: To create drug resistant yeast strains, all four cell lines were grown up in the presence of 500 ng/ml of cycloheximide, and transferred to other cycloheximide containing plates after a period of four to six days. This transfer of cell lines and subculturing continued such that the yeast cells grew in the presence of cycloheximide for a period of at least a month.
Cells cultured in media alone: To create cell lines that had not been preselected for their ability to grow in drug, yeast strains were grown on plates containing YNB (Bio101, Vista, Calif.) without uracil (-URA) to maintain the presence of the vector (which supplies URA) without any drugs added.
Cells were transferred into 5 ml YNB -URA liquid media for turbidity measurements. All cell lines (both non-drug selected and drug-selected) were grown in media with the addition of either nothing, 500 ng/ml cycloheximide, 100 mM ATP, or 500 ng/ml cycloheximide and 100 mM ATP. Turbidity readings were taken after 48 hours.

[8] = test system: Arabidopsis thaliana WS wild-type plants; assay: Increasing plant sensitivity to herbicides (adjuvant test); type: in vivo; details: surflan with compound of Formula II at 5 μg/ml versus surflan alone
Protocol: Arabidopsis thaliana WS wild-type plants were plated on germination media containing two commonly used herbicides, surflan and pendimethalin, in the presence and absence of an ecto-phosphatase inhibitor of Formula II and monitored for their growth in a 22° C. incubator under constant fluorescent illumination.
More specifically, germination media was prepared containing 20 μl/ml, 10 μl/ml, 2 μl/ml, 1 μl/ml, and 0.2 μl/ml of a surflan solution made at the manufacturer's recommended concentration. Compound of Formula II was added to a portion of the germination media at a final concentration of 5 μg/ml.
Arabidopsis thaliana WS wild-type seeds were surface sterilized in a 20% bleach solution for 20 minutes, washed three times in double distilled waster, and resuspended in 0.1% agarose solution. The seeds were then pipetted onto plates containing approximately 3 ml of germination media containing the various concentrations of surflan with and without compound of Formula II. All plates were placed in a 22° C. incubator under constant fluorescent illumination. Growth was assessed daily.

SMILES: N#Cc1c(Cl)c(Cl)c(Cl)c(C#N)c1Cl [chlorothalonil]
- area of inhibition ([1]; chlorothalonil by itself): 0.35 in^2
- average radius of inhibition ([1]; chlorothalonil disk, plates without ecto-phosphatase inhibitor): 0.33 in.

SMILES: O=P(O)(O)O [phosphate, potassium phosphate]
- effect on growth of cells overexpressing AtPGP-1 in drug [2]: slightly inhibitory
- effect on resistance to cycloheximide [2]: did not enhance resistance

SMILES: CO[C@@H]1C[C@@H](C[C@H]2CC[C@H](C)[C@H]([C@@H](C)C(=O)O)O2)O[C@]2(O[C@](C)([C@H]3CC[C@@](C)([C@@H]4O[C@@H]([C@H]5O[C@@](O)(CO)[C@H](C)C[C@@H]5C)C[C@@H]4C)O3)C[C@H]2C)[C@@H]1C [nigericin]
- growth in drug ([3]; nigericin 25 μg/ml, YMR4 containing vector alone): reduced growth

SMILES: C[C@@H]1C[C@@H]([C@H](O)CC2CC(=O)NC(=O)C2)C(=O)[C@@H](C)C1 [cycloheximide]
- germination rate [4]: 2%
- germination rate [5]: 50%
- growth in drug ([3]; cycloheximide 500 ng/ml): did not grow
- growth in drug [6]: did grow

SMILES: Nc1ncnc2c1ncn2[C@@H]1O[C@H](COP(=O)(O)CP(=O)(O)O)[C@@H](O)[C@H]1O [α,β-methyleneadenosine 5′-diphosphate]
- germination rate [4]: 90%
- germination rate [5]: 83%

SMILES: Nc1ncnc2c1ncn2[C@@H]1O[C@H](COP(=O)(O)OP(=O)(O)OP(=O)(O)O)[C@@H](O)[C@H]1O [ATP]
- growth in high levels of ATP ([7]; cells not previously selected in drug): able to grow
- growth in high levels of ATP ([7]; cells previously grown in cycloheximide, not overexpressing AtPGP-1): not able to grow

SMILES: Cc1cccc(NS(=O)(=O)c2ccc(-c3ccccc3)cc2)c1 [Formula II]
- surflan concentration at which it is an equally effective weed killer [8]: five fold less concentration

SMILES: Nc1ncnc2c1ncn2[C@@H]1O[C@H](CO)[C@@H](O)[C@H]1O [adenosine]
- effect on growth of cells overexpressing AtPGP-1 in drug [2]: slightly inhibitory
- effect on resistance to cycloheximide [2]: did not enhance resistance
